Assay results: the CheMixHub viscosity set
“And” between values parts separate entries of the source, which are not always exact repeats. Equal values may be shown once. ± gives the uncertainty stated by the source.

Assay: xn = mol fraction of the nth substance listed
Conditions: 101.3 kPa

O=[N+]([O-])c1ccccc1 + CCCCC
Conditions | viscosity
293.15 K, x1 = 0.0998 | 0.272 ± 0.002 mPa·s
293.15 K, x1 = 0.1994 | 0.336 ± 0.003 mPa·s
293.15 K, x1 = 0.5984 | 0.79 ± 0.005 mPa·s
293.15 K, x1 = 0.6995 | 0.972 ± 0.006 mPa·s
293.15 K, x1 = 0.7997 | 1.221 ± 0.007 mPa·s
293.15 K, x1 = 0.9 | 1.549 ± 0.009 mPa·s
297.15 K, x1 = 0.0998 | 0.262 ± 0.002 mPa·s
297.15 K, x1 = 0.1994 | 0.322 ± 0.003 mPa·s
297.15 K, x1 = 0.299 | 0.42 ± 0.003 mPa·s
297.15 K, x1 = 0.3491 | 0.52 ± 0.004 mPa·s
297.15 K, x1 = 0.399 | 0.596 ± 0.004 mPa·s
297.15 K, x1 = 0.4589 | 0.603 ± 0.004 mPa·s
297.15 K, x1 = 0.494 | 0.623 ± 0.004 mPa·s
297.15 K, x1 = 0.5984 | 0.748 ± 0.005 mPa·s
297.15 K, x1 = 0.6995 | 0.921 ± 0.006 mPa·s
297.15 K, x1 = 0.7997 | 1.15 ± 0.007 mPa·s
297.15 K, x1 = 0.9 | 1.452 ± 0.009 mPa·s
297.16 K, x1 = 0.383 | 0.62 ± 0.15 mPa·s
297.17 K, x1 = 0.299 | 0.42 ± 0.003 mPa·s
297.17 K, x1 = 0.3491 | 0.517 ± 0.004 mPa·s
297.17 K, x1 = 0.383 | 0.619 ± 0.16 mPa·s and 0.617 ± 0.15 mPa·s and 0.61 ± 0.15 mPa·s
297.17 K, x1 = 0.3832 | 0.614 ± 0.004 mPa·s
297.17 K, x1 = 0.399 | 0.591 ± 0.004 mPa·s
297.17 K, x1 = 0.4589 | 0.602 ± 0.004 mPa·s
297.17 K, x1 = 0.494 | 0.623 ± 0.004 mPa·s
297.18 K, x1 = 0.383 | 0.604 ± 0.12 mPa·s
297.2 K, x1 = 0.383 | 0.593 ± 0.1 mPa·s
297.23 K, x1 = 0.383 | 0.583 ± 0.058 mPa·s
297.29 K, x1 = 0.383 | 0.565 ± 0.046 mPa·s
297.34 K, x1 = 0.383 | 0.558 ± 0.025 mPa·s
297.44 K, x1 = 0.383 | 0.546 ± 0.017 mPa·s
297.6 K, x1 = 0.383 | 0.535 ± 0.01 mPa·s
297.65 K, x1 = 0.0998 | 0.261 ± 0.002 mPa·s
297.65 K, x1 = 0.1994 | 0.321 ± 0.003 mPa·s
297.65 K, x1 = 0.299 | 0.415 ± 0.003 mPa·s
297.65 K, x1 = 0.3491 | 0.488 ± 0.004 mPa·s
297.65 K, x1 = 0.3832 | 0.532 ± 0.004 mPa·s
297.65 K, x1 = 0.399 | 0.55 ± 0.004 mPa·s
297.65 K, x1 = 0.4589 | 0.592 ± 0.004 mPa·s
297.65 K, x1 = 0.494 | 0.616 ± 0.004 mPa·s
297.65 K, x1 = 0.5984 | 0.743 ± 0.005 mPa·s
297.65 K, x1 = 0.6995 | 0.915 ± 0.006 mPa·s
297.65 K, x1 = 0.7997 | 1.142 ± 0.007 mPa·s
297.65 K, x1 = 0.9 | 1.441 ± 0.009 mPa·s
298 K, x1 = 0.383 | 0.52 ± 0.006 mPa·s
298.15 K, x1 = 0.0998 | 0.26 ± 0.002 mPa·s
298.15 K, x1 = 0.1994 | 0.319 ± 0.003 mPa·s
298.15 K, x1 = 0.299 | 0.411 ± 0.003 mPa·s
298.15 K, x1 = 0.3491 | 0.476 ± 0.003 mPa·s
298.15 K, x1 = 0.3832 | 0.515 ± 0.004 mPa·s
298.15 K, x1 = 0.399 | 0.536 ± 0.004 mPa·s
298.15 K, x1 = 0.4589 | 0.584 ± 0.004 mPa·s
298.15 K, x1 = 0.494 | 0.61 ± 0.004 mPa·s
298.15 K, x1 = 0.5984 | 0.738 ± 0.005 mPa·s
298.15 K, x1 = 0.6995 | 0.909 ± 0.006 mPa·s
298.15 K, x1 = 0.7997 | 1.134 ± 0.007 mPa·s
298.15 K, x1 = 0.9 | 1.43 ± 0.009 mPa·s
298.76 K, x1 = 0.383 | 0.504 ± 0.005 mPa·s
299.15 K, x1 = 0.0998 | 0.257 ± 0.002 mPa·s
299.15 K, x1 = 0.1994 | 0.316 ± 0.003 mPa·s
299.15 K, x1 = 0.299 | 0.404 ± 0.003 mPa·s
299.15 K, x1 = 0.3491 | 0.461 ± 0.003 mPa·s
299.15 K, x1 = 0.3832 | 0.498 ± 0.004 mPa·s
299.15 K, x1 = 0.399 | 0.518 ± 0.004 mPa·s
299.15 K, x1 = 0.4589 | 0.571 ± 0.004 mPa·s
299.15 K, x1 = 0.494 | 0.6 ± 0.004 mPa·s
299.15 K, x1 = 0.5984 | 0.729 ± 0.005 mPa·s
299.15 K, x1 = 0.6995 | 0.897 ± 0.006 mPa·s
299.15 K, x1 = 0.7997 | 1.118 ± 0.007 mPa·s
299.15 K, x1 = 0.9 | 1.406 ± 0.008 mPa·s
299.88 K, x1 = 0.383 | 0.489 ± 0.004 mPa·s
302.28 K, x1 = 0.383 | 0.466 ± 0.004 mPa·s
305.15 K, x1 = 0.0998 | 0.245 ± 0.002 mPa·s
305.15 K, x1 = 0.1994 | 0.298 ± 0.002 mPa·s
305.15 K, x1 = 0.299 | 0.373 ± 0.003 mPa·s
305.15 K, x1 = 0.3491 | 0.417 ± 0.003 mPa·s
305.15 K, x1 = 0.3832 | 0.447 ± 0.003 mPa·s
305.15 K, x1 = 0.399 | 0.466 ± 0.003 mPa·s
305.15 K, x1 = 0.4589 | 0.52 ± 0.004 mPa·s
305.15 K, x1 = 0.494 | 0.551 ± 0.004 mPa·s
305.15 K, x1 = 0.5984 | 0.677 ± 0.005 mPa·s
305.15 K, x1 = 0.6995 | 0.831 ± 0.005 mPa·s
305.15 K, x1 = 0.7997 | 1.031 ± 0.006 mPa·s
305.15 K, x1 = 0.9 | 1.284 ± 0.008 mPa·s
305.99 K, x1 = 0.383 | 0.442 ± 0.003 mPa·s
313.15 K, x1 = 0.0998 | 0.229 ± 0.002 mPa·s
313.15 K, x1 = 0.1994 | 0.277 ± 0.002 mPa·s
313.15 K, x1 = 0.299 | 0.342 ± 0.003 mPa·s
313.15 K, x1 = 0.3491 | 0.38 ± 0.003 mPa·s
313.15 K, x1 = 0.3832 | 0.403 ± 0.003 mPa·s
313.15 K, x1 = 0.399 | 0.424 ± 0.003 mPa·s
313.15 K, x1 = 0.4589 | 0.471 ± 0.003 mPa·s
313.15 K, x1 = 0.494 | 0.503 ± 0.004 mPa·s
313.15 K, x1 = 0.5984 | 0.616 ± 0.004 mPa·s
313.15 K, x1 = 0.6995 | 0.753 ± 0.005 mPa·s
313.15 K, x1 = 0.7997 | 0.929 ± 0.006 mPa·s
313.15 K, x1 = 0.9 | 1.143 ± 0.007 mPa·s
